Source: a melting point compilation (Tetko et al.; mined from patent text by program, amines drawn as free bases though some values may be those of a salt)

| SMILES | melting point [°C] |
| --- | --- |
| CC(N)C(=O)N1C(C(=O)O)CC2CCCCC21 (stereo not drawn) | 163 to 165 |
| CCOC(=O)CC(=O)c1cc(F)c(F)c(C)c1F | 38 to 39 |
| Nc1nc(F)cc(CF)n1 | 189 to 190 |
| Cc1cc(C(=O)O)c(Cl)c([N+](=O)[O-])c1C | 160 to 163 |
| COc1ccc(C2CC3(C)C(=O)CCC3C3CCC4=CC(=O)CCC4C23)cc1 (stereo not drawn) | 155 to 156 |
| COC(=O)Oc1ccc(N=C(C#N)c2ccccc2)cc1 | 145 to 146 |
| CC(=O)c1cnc(C(=O)C(C)(C)C)cn1 | 41 to 42.5 |
| CCC(=O)C1OC(O)C(O)C1OCc1ccccc1Cl (stereo not drawn) | 130 to 133 |
| COc1cc2c(cc1OC)N(C)C(=O)CN=C2c1cccc(C=O)c1 | 175 to 178 |
| CC(C)CNc1cccnc1N1CCN(C(=O)c2ccc(C(=O)NC(C)(C)CO)cn2)CC1 | 140 to 143 |
| CCOC(=O)c1c(C)nc(N2CCN(C)CC2)c([N+](=O)[O-])c1Cl | 59 to 61 |
| O=C(NCc1ccc(/C=C/C(c2cc(Cl)c(Cl)c(Cl)c2)C(F)(F)F)cc1Cl)C(=O)NCC(F)(F)F (stereo not drawn) | 161 to 163 |
| COC(=O)COc1c(CCC(C)C)c(OC)cc(OC)c1C(=O)CCc1ccc(OC)c(O)c1 | 94 to 95 |
| CCCCC1(CCCC)CS(=O)(=O)c2ccc(N(C)C)cc2C(c2ccc(OCc3ccc(CN(CC(=O)O)CC(=O)O)cc3)cc2)C1O (stereo not drawn) | 175 |
| CO/C(=C\c1ccc(OCCc2nc(-c3ccccc3)oc2C)c2ccsc12)C(=O)O | 189 to 190 |
| C#CCN1C(=O)C2(CCCC2)c2ccccc21 | 109 to 111 |
| Cc1cccc(NC(=O)NCC(=O)N2[C@@H](C(=O)OC(C)(C)C)C[C@H](CO)[C@H]2c2ccccc2)c1 (racemic) | 168 |
| CNCc1ccsc1CC(=O)O | 181 to 182 |
| CCn1cnc2c(Nc3cccc(C(F)(F)F)c3)nc(NCCCO)nc21 | 136 to 137 |
| O=C(c1c(F)cccc1F)N1COCN(c2ccc(Cl)cc2)C1=O | 125 to 126 |
| CNCC1Cc2cc(-c3ccccc3)cc(-c3cccc(F)c3)c2O1 (stereo not drawn) | > 250 |
| CCN1CCC(=O)N(c2ccccc2C(C)C)C1=S | 118 to 122 |
| COC(=O)C(O)C(NCc1ccccc1)c1ccc(Cl)cc1 (stereo not drawn) | 106 to 108 |
| COc1cccc2nc(-c3ccc(OCCNC(C)C)c(-c4ccc(S(C)(=O)=O)cc4)n3)[nH]c(=O)c12 | 222 to 223 |
| O=C(Cn1c(-c2ccc(Cl)cc2)nc2cccnc21)N1CCCCC1 | 176 to 178 |

| SMILES | melting point [°C] |
| --- | --- |
| Nc1nc(N)nc(C2CC3CCC2C3)n1 (stereo not drawn) | 216 to 217 |
| COc1ccc2[nH]c(SCc3nccc(N4CCCCC4)n3)nc2c1 | 145 to 147 |
| Cc1ncc2ccc(-c3cccs3)nc2n1 | 175 to 180 |
| CN(C)C(=O)c1cc(Cl)c(N)c(Cl)c1 | 134 |
| Cc1cn(C(C)C(=O)N(C)C)nc1-c1ccccc1 (stereo not drawn) | 87 to 89 |
| Cn1c(C(F)(F)F)ccc(-c2c(Cl)cc(Cl)c3oc(C(Br)(Br)Br)cc23)c1=O | 225 to 227 |
| CS(=O)(=O)C(C#N)=Cc1ccc2[nH]ccc2c1 | 184 to 185 |
| O=C(OCC=C(c1ccccc1)[N+](=O)[O-])C(F)(F)C(F)(F)C(F)(F)C(F)(F)C(F)(F)C(F)(F)C(F)(F)F | 79 to 81 |
| COc1cc(Nc2c(C#N)cnc3ccc(Br)cc23)c(Cl)cc1Cl | 232 to 234 |
| Cc1ccc(-c2ccc3c(c2)C=CCCO3)cc1 | 98 to 100 |
| CCCOc1c(OC)cc([C@H]2CC[C@H](c3cc(OC)c(OC)c(OC)c3)O2)cc1S(C)(=O)=O (relative stereo) | 95 to 96 |
| O=C(O)c1ccccc1C(=O)c1ccc(Cl)cc1Cl | 178 to 181 |
| Oc1ccc(-c2ccc(O)c3cc(O)c(O)cc23)cc1O | 224 to 226 |
| COC(=O)C(Cc1ccc(OCCN(C)c2nc3ccccc3o2)cc1)OCC(=O)O (stereo not drawn) | 154 to 155 |
| COc1ccnc(CSc2nc3cc(Cl)c(Cl)cc3[nH]2)c1C | 254 to 256 |
| O=C(O)COc1cccc2c1Cc1sc(S(=O)(=O)CCCC(c3ccccc3)c3ccccc3)nc1-2 | 97 to 101 |
| O=C(O)c1ccc(-c2nc3cc(Cl)c(Cl)cc3[nH]2)cc1 | > 250 |
| Cc1nc(Sc2ncccc2CC(=O)O)sc1CC(=O)O | 172 to 174 |
| CN(C)S(=O)(=O)c1cc2c(c(Cl)c1Cl)OC(C(=O)OCOC(=O)C(C)(C)C)C2 (stereo not drawn) | 113 to 114 |
| CC(C)(C)OC(=O)Nc1nc(C(=CC(C)(C)C(=O)OCc2ccccc2)C(=O)O)cs1 | 175 to 177 |
| Cn1c(-c2ccc(OCC3CO3)cc2)nnc1C(F)(F)F (stereo not drawn) | 104 to 106 |
| CCOC(=O)c1ncn2c1CN(Cc1ccc(OC)cc1OC)C(=O)c1ccccc1-2 | 136 to 138 |
| CCOC(=O)c1cnc2c(N)cccc2c1 | 94 to 96 |
| CCNC(=O)[C@@H](C[C@H](O)[C@H](CC1CCCCC1)NC(=O)[C@H](Cc1cscn1)NC(=O)OC(C)(C)C)C(C)(C)O | 189 to 191 |
| CC(C)(C)CC(C)(C)c1cc(N=Nc2cc(C(F)(F)F)ccc2Cl)c(O)c(C(C)(C)c2ccccc2)c1 | 120 to 127 |

| SMILES | melting point [°C] |
| --- | --- |
| O=C(CI)N1CCN(C(=O)CI)CC1 | 105 to 109 |
| CCOC(=O)c1cc(-n2c(=O)c3c(n(COC)c2=O)CCC3)ccc1Cl | 103 to 106 |
| O=C1Nc2ccc(F)c(F)c2C1c1ncnc2c1cnn2C1CCCC1 (stereo not drawn) | > 300 |
| COc1cccc(CCc2c(C(=O)O)ccc(OC)c2OC)c1 | 156 to 158 |
| CC1CCc2nc(=O)c(C(N)=O)cn21 (stereo not drawn) | 223 |
| COc1ccc(C)cc1NC(=O)Nc1ccc2c(c1)CCN(C(=O)Nc1ccc(OCCO)cc1Cl)C2 | 110 to 113 |
| CC(=O)OCC1OC(n2cc(F)c(=O)[nH]c2=O)CC1OC(C)=O (stereo not drawn) | 151 |
| CCCCCCSc1nn2c(=O)cc(Cl)nc2s1 | 95 to 96 |
| CCOC(=O)Cc1c(C(=O)OCC)c(C)cn1CCOS(C)(=O)=O | 66 to 68 |
| O=C(O)CCCc1cc2nc(Cl)ccc2n1S(=O)(=O)c1ccc2c(c1)CCO2 | 225 |
| COc1cc(Nc2c(C#N)cnc3cc(-c4ccc(CN5CCOCC5)s4)ccc23)c(Cl)cc1Cl | 188 |
| Nc1c(Cl)ccc2c1NCCC2=O | 105 to 109 |
| Nc1sc2c(c1C(=O)c1ccccn1)CCN(Cc1ccccc1)C2 | 67 to 71 |
| CNCC(O)(Cn1cncn1)c1ccc(Cl)cc1Cl (stereo not drawn) | 98 to 101 |
| CCOC(=O)NNc1ccc(-c2ccc(Br)cc2)nn1 | 190 to 192 |
| COC(=O)C(O)C(CC1CCCCC1)NC(=O)C(Cc1c[nH]cn1)NC(=O)C(CC(=O)N1CCOCC1)Cc1cccc2ccccc12 (mixture of isomers) | 83 to 87 |
| COc1cc(Cl)c([N+](=O)[O-])cc1C(=O)NCCC(=O)O | 170 to 172 |
| CCOC(=O)C=Cc1cccc(I)c1 | 36.3 |
| Nc1ncnc2sc(Cc3cccnc3)c(-c3ccc(NC(=O)Nc4cccc(Cl)c4)cc3)c12 | 169 to 172 |
| Cc1ccc(-c2[nH]nc(COCCCO[N+](=O)[O-])c2-c2ccc(S(N)(=O)=O)cc2)cc1 | 62 |
| Oc1ccc(Nc2nc(Cl)nc(NCc3ccco3)n2)cc1 | 188 to 190 |
| O=C(O)C1Cc2ccccc2N1S(=O)(=O)c1ccc(-c2cc(C(F)(F)F)ccc2Cl)cc1 (stereo not drawn) | 79 to 83 |
| CC(=O)SCC1CCCCCCC(C(=O)N2C(=O)OCC2Cc2ccccc2)NC1=O (stereo not drawn) | 65 to 66 |
| COc1ccccc1C1C2CCC(C2)C12CCC(=O)N2 (stereo not drawn) | 260 |
| Cc1cc(NN)nc(-c2ccncc2)n1 | 150 to 152 |

| SMILES | melting point [°C] |
| --- | --- |
| Cc1cccnc1NC(=O)Nc1cccc2c1C1CC(O)CCN1C2=O (stereo not drawn) | 204 to 206 |
| CCN(CCOC)C(=O)C1=CC(c2ccccc2)C(=O)n2cc3cccc(Cl)c3c21 (stereo not drawn) | 146 to 148 |
| COC(=O)c1ccc(C2C(C(=O)c3ccc(C)cc3)=C(O)C(=O)N2c2ncc(S(=O)(=O)c3ccc([N+](=O)[O-])cc3)s2)cc1 (stereo not drawn) | 249 to 251 |
| CC1(C)N=C(c2ccccc2Cl)c2cc([N+](=O)[O-])ccc2N(CCO)C1=O | 192 to 194 |
| CCC(O)C#Cc1ccc2c(=O)c(-c3ncc[nH]3)c(N)n(CC3CC3)c2n1 (stereo not drawn) | 252 |
| CC(C)OC(=O)c1cc(-n2c(=O)[nH]c3c(c2=O)CCC3)c(Br)cc1Br | 223 to 226 |
| CC1CC(=O)NN=C1c1ccc2c(c1)N=CS2=O (stereo not drawn) | 317 to 319 |
| Clc1cccc(Nc2nnc(-c3ccc4nonc4c3)s2)c1Cl | 229 to 231 |
| CC[C@@H](c1ccccc1)N(Cc1ccc(C(=O)O)cc1)S(=O)(=O)c1ccc(C(=O)O)cc1 | 102 to 104 |
| Nc1nc(SCc2ccccc2)c2ncn(C3CC(F)C(CO)O3)c2n1 (stereo not drawn) | 150 to 151 |
| CCOC(=O)c1cccn2c(S(=O)(=O)Cl)c(C)nc12 | 182 to 183 |
| CC(c1ccccc1)N1Cc2cncn2C(c2ccc(C#N)cc2)C1=O (stereo not drawn) | 157 to 158 |
| Cc1cc(-c2cc(C(F)(F)F)n3ncc(C(=O)Nc4cccc(S(C)(=O)=O)c4)c3n2)ccc1C(F)(F)F | 233 |
| Cc1cc(-c2c(-c3ccc(S(C)(=O)=O)cc3)cnn(-c3cccc(Cl)c3)c2=O)ccc1F | 228 to 230 |
| O=C1CC(c2coc3ccccc23)=Nc2cc3c(cc21)OCO3 | > 315 |
| CN1CC(c2ccc(Cc3ccc(F)cc3)cn2)=C(O)C1=O | 204 to 206 |
| CCn1nc(C2CC2)c(C(=O)O)c1Cc1ccc(-c2ccccc2-c2nnn[nH]2)cc1 | 227 to 229 |
| CCCNC(=O)CCc1ccc2ccn(Cc3ccc(C(=O)NS(=O)(=O)c4ccccc4C)cc3OC)c2c1 | 110 |
| C=Cc1ccc(S(=O)(=O)NS(=O)(=O)c2ccccc2)cc1 | 145 to 147 |
| COc1cc(C)c(S(=O)(=O)c2ccccc2C)cc1OC | 126 to 128 |
| COC(=O)c1cc(C(C)=O)c(O)cc1O | 124 to 126 |
| O=C(CC(Cc1ccccc1)C(=O)O)c1ccc(Cl)cc1 (racemic) | 137 to 138 |
| Nc1nccc(-c2c[nH]c3nccc(CCc4ccccc4)c23)n1 | 196 to 198 |
